Among the data in patent US9732087B2, “Diamino-pyridine, pyrimidine, and pyridazine modulators of the histamine H4 receptor” (JANSSEN PHARMACEUTICA NV, priority 2008, dated 2017) are Ki values, retold here.

The assay has as its target human H4 receptor (Homo sapiens (Human), UniProt Q9H3N8). The assay can be described thus: Binding assay on recombinant human histamine H4 receptor ([3H]histamine competition, SK-N-MC cell membranes). To be noted: membranes harvested with cell harvester; [3H]histamine 10 nM; average of results; read-out: Cell Harvester Ki. In a few lines:
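Scintillation counting of filter-bound [3H]histamine after rapid harvesting on 0.5% PEI-treated GF/C filters with ice-cold Tris/EDTA washes. Receptor source: 30,000 g membrane pellets of SK-N-MC cells stably or transiently expressing human H4. Values shown as '>' are the top concentration tested.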

Chain of human H4 receptor (Q9H3N8 whole entry): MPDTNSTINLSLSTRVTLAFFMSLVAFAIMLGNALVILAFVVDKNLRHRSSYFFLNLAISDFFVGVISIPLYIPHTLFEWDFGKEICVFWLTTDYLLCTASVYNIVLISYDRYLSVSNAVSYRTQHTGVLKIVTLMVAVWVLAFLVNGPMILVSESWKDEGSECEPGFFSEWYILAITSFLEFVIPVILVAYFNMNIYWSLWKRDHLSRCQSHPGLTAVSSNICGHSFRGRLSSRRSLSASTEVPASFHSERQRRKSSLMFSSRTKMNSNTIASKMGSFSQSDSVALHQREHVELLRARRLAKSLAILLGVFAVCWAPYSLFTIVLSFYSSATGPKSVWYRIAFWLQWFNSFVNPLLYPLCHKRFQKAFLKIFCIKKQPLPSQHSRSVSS

On to `C[C@@H](Nc1nccc(N2C[C@H]3CCN[C@H]3C2)n1)C1CCCCC1` [Example 115, N-[(1R)-1-Cyclohexylethyl]-4-[(3aR,6aR)-hexahydropyrrolo[3,4-b]pyrrol-5(1H)-yl]pyrimidin-2-amine], for which the inhibition constant (Ki) is 932 nM. The figure for `C[C@@H]1[C@@H](Nc2nccc(N3CC[C@@H](N)C3)n2)C[C@H]2C[C@@H]1C2(C)C` [Example 116, 4-[(3R)-3-Aminopyrrolidin-1-yl]-N-[(1S,2S,3S,5R)-2,6,6-trimethylbicyclo[3.1.1]hept-3-yl]pyrimidin-2-amine] is 7.53 nM; for `N[C@@H]1CCN(c2ccnc(NCCc3ccccc3)n2)C1` [Example 117, 4-[(3R)-3-Aminopyrrolidin-1-yl]-N-(2-phenylethyl)pyrimidin-2-amine] it is 247 nM; for `N[C@H]1CCN(c2ccnc(NCc3ccccn3)n2)C1` [Example 118, 4-[(3S)-3-Aminopyrrolidin-1-yl]-N-(pyridin-2-ylmethyl)pyrimidin-2-amine] it is greater than 10000 nM.

Regarding `CN1CCN(c2ccnc(NCC3CCCC3)n2)CC1` [Example 119, N-(Cyclopentylmethyl)-4-(4-methylpiperazin-1-yl)pyrimidin-2-amine], the inhibition constant (Ki) amounted to 22.9 nM. The value for `CN1CCN(c2ccnc(NCC(C)(C)O)n2)CC1` [Example 120] was 303 nM. The value for `CN[C@@H]1CCN(c2ccnc(NCC3CCCC3)n2)C1` [Example 121, N-(Cyclopentylmethyl)-4-[(3R)-3-(methylamino)pyrrolidin-1-yl]pyrimidin-2-amine] was 1.57 nM; that for `CNC1CN(c2ccnc(NCC(C)(C)O)n2)C1` [Example 122] was 64.7 nM; that for `N[C@@H]1CCN(c2ccnc(NCC3CCCC3)n2)C1` [Example 123, 4-[(3R)-3-Aminopyrrolidin-1-yl]-N-(cyclopentylmethyl)pyrimidin-2-amine] was 2.04 nM.

On to `CSCCNc1nccc(N2CCNCC2)n1` [Example 124, N-[2-(Methylsulfanyl)ethyl]-4-piperazin-1-ylpyrimidin-2-amine], for which the Ki turned out to be 155 nM. In the case of `CC1(C)[C@@H]2CC[C@@]1(C)[C@@H](Nc1nccc(N3C[C@H]4CCN[C@H]4C3)n1)C2` [Example 125, 4-[(3aR,6aR)-Hexahydropyrrolo[3,4-b]pyrrol-5(1H)-yl]-N-[(1R,2S,4R)-1,7,7-trimethylbicyclo[2.2.1]hept-2-yl]pyrimidin-2-amine], the Ki came to 2.1 nM. The figure for `CNC1CN(c2ccnc(N[C@H]3C[C@H]4CC[C@]3(C)C4(C)C)n2)C1` [Example 126, 4-[3-(Methylamino)azetidin-1-yl]-N-[(1R,2S,4R)-1,7,7-trimethylbicyclo[2.2.1]hept-2-yl]pyrimidin-2-amine] is 19.8 nM. The figure for `CC1(C)[C@@H]2CC[C@@]1(C)[C@@H](Nc1nccc(N3CC[C@@H](N)C3)n1)C2` [Example 127, 4-[(3R)-3-Aminopyrrolidin-1-yl]-N-[(1R,2S,4R)-1,7,7-trimethylbicyclo[2.2.1]hept-2-yl]pyrimidin-2-amine] is 1.66 nM. The value for `COCCNc1nccc(N2CC[C@H](N)C2)n1` [Example 128, 4-[(3S)-3-Aminopyrrolidin-1-yl]-N-(2-methoxyethyl)pyrimidin-2-amine] was 844 nM; that for `N[C@H]1CCN(c2ccnc(NC3CCCCC3)n2)C1` [Example 129, 4-[(3S)-3-Aminopyrrolidin-1-yl]-N-cyclohexylpyrimidin-2-amine] was 141 nM; that for `CC(C)(CO)CNc1nccc(N2CC[C@H](N)C2)n1` [Example 130, 3-({4-[(3S)-3-Aminopyrrolidin-1-yl]pyrimidin-2-yl}amino)-2,2-dimethylpropan-1-ol] was 849 nM. `c1ccc(CNc2nccc(N3CCNCC3)n2)cc1` [Example 131, N-Benzyl-4-piperazin-1-ylpyrimidin-2-amine]: the Ki worked out at 820 nM. The value for `c1ccc(CCNc2nccc(N3CCNCC3)n2)cc1` [Example 132, N-(2-Phenylethyl)-4-piperazin-1-ylpyrimidin-2-amine] was 1540 nM; that for `c1cc(N2CCNCC2)nc(NC2CC3CCC2C3)n1` (centres unmarked) [Example 133, N-Bicyclo[2.2.1]hept-2-yl-4-piperazin-1-ylpyrimidin-2-amine] was 129 nM; that for `C[C@@H]1[C@@H](Nc2nccc(N3CCNCC3)n2)C[C@H]2C[C@@H]1C2(C)C` [Example 134, 4-Piperazin-1-yl-N-[(1S,2S,3S,5R)-2,6,6-trimethylbicyclo[3.1.1]hept-3-yl]pyrimidin-2-amine] was 697 nM. The figure for `CNC1CN(c2ccnc(NCCCO)n2)C1` [Example 135, 3-({4-[3-(Methylamino)azetidin-1-yl]pyrimidin-2-yl}amino)propan-1-ol] is 15.9 nM; for `CNC1CN(c2ccnc(NCC(C)(C)CO)n2)C1` [Example 136, 2,2-Dimethyl-3-({4-[3-(methylamino)azetidin-1-yl]pyrimidin-2-yl}amino)propan-1-ol] it is 193 nM; for `OCCCNc1nccc(N2CCNCC2)n1` [Example 137, 3-[(4-Piperazin-1-ylpyrimidin-2-yl)amino]propan-1-ol] it is 1380 nM. The figure for `CC(C)CNc1nccc(N2C[C@H]3CCN[C@H]3C2)n1` [Example 138, 4-[(3aR,6aR)-Hexahydropyrrolo[3,4-b]pyrrol-5(1H)-yl]-N-(2-methylpropyl)pyrimidin-2-amine] is 23.8 nM; for `c1cc(N2C[C@H]3CCN[C@H]3C2)nc(NC2CCCC2)n1` [Example 139, N-Cyclopentyl-4-[(3aR,6aR)-hexahydropyrrolo[3,4-b]pyrrol-5(1H)-yl]pyrimidin-2-amine] it is 7.96 nM. For the compound `COCCNc1nccc(N2C[C@H]3CCN[C@H]3C2)n1` [Example 140, 4-[(3aR,6aR)-Hexahydropyrrolo[3,4-b]pyrrol-5(1H)-yl]-N-(2-methoxyethyl)pyrimidin-2-amine], the inhibition constant (Ki) stood at 135 nM.

For the compound `C[C@@H](Nc1nccc(N2C[C@H]3CCN[C@H]3C2)n1)c1ccccc1` [Example 141, 4-[(3aR,6aR)-Hexahydropyrrolo[3,4-b]pyrrol-5(1H)-yl]-N-[(1R)-1-phenylethyl]pyrimidin-2-amine], the Ki was determined as 2320 nM. For `Fc1ccc(CNc2nccc(N3C[C@H]4CCN[C@H]4C3)n2)cc1` [Example 142, N-(4-Fluorobenzyl)-4-[(3aR,6aR)-hexahydropyrrolo[3,4-b]pyrrol-5(1H)-yl]pyrimidin-2-amine], the Ki was 7090 nM. The figure for `c1cc(N2C[C@H]3CCN[C@H]3C2)nc(NC2CC2)n1` [Example 143, N-Cyclopropyl-4-[(3aR,6aR)-hexahydropyrrolo[3,4-b]pyrrol-5(1H)-yl]pyrimidin-2-amine] is 267 nM; for `COc1ccc(CNc2nccc(N3CCNCC3)n2)cc1` [Example 144, N-(4-Methoxybenzyl)-4-piperazin-1-ylpyrimidin-2-amine] it is 2530 nM; for `CN[C@H]1CCN(c2ccnc(NC3CC3)n2)C1` [Example 145, N-Cyclopropyl-4-[(3S)-3-(methylamino)pyrrolidin-1-yl]pyrimidin-2-amine] it is 923 nM. The figure for `N[C@H]1CCN(c2ccnc(NC3CC4CCC3C4)n2)C1` (stereo partly drawn) [Example 146, 4-[(3S)-3-Aminopyrrolidin-1-yl]-N-bicyclo[2.2.1]hept-2-ylpyrimidin-2-amine] is 34.1 nM.

For orientation: Ki means the equilibrium dissociation constant of an inhibitor or competing ligand from its target.
